Target: association reaction between recombinantly prepared mouse PrP (amino acids 23-231) and PrP-Sc aggregates prepared from the brain tissue of CJD patients (UniProt P04156+P04925)
Type: binding, human PrP-Sc (CJD patients); mouse PrP
Details: for influence on association of fluorescence-labeled recombinant PrP to prion aggregates: SIFT, 20 mM potassium phosphate buffer, pH 6.0, 0.1% Nonidet-P40

Row | SMILES | influence on association of fluorescence-labeled recombinant PrP to prion aggregates | number of bins per sector in two-dimensional histograms of the fluorescence intensity (FIG. 4, two-dimensional SIFT evaluation by sectors)
1 | CCCCCCCC/C=C\CCCCCCCC(=O)OC[C@H](COP(=O)(O)OCCN)OC(=O)CCCCCCC/C=C\CCCCCCCC [DOPE, dioleyl-L-phosphatidylethanolamine] | no influence on aggregation was found | 
2 | CCCCCCCC/C=C\CCCCCCCCOCC(C[N+](C)(C)CCNC(=O)C(CCCNCCCN)NCCCN)OCCCCCCCC/C=C\CCCCCCCC.O=C([O-])C(F)(F)F (stereo not drawn) [DOSPA, 2,3-dioleyloxy-N-[2-(sperminecarboxamido)ethyl]-N,N-dimethyl-1-propanaminium trifluoroacetate] | inhibits the association of fluorescence-labeled recombinant PrP to prion aggregates at low micromolar concentrations | number of bins is decreased in sectors 1 to 9

Reference: patent publication US20050147989A1 (priority 2003, published 2005)
